Experimental data as given in the supplement of paper PMC10307832.

Assays:
Assay in all cases: relative viability (nuclei count vs DMSO), 5 days (fraction); higher = more cells survive
NCI-H460 = tested on: NCI-H460
In short: (§1)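 Lung cancer cell lines in 1536-well plates got either a single drug or a fixed anchor-drug dose together with five library-drug doses (not always all listed) in √10 steps, by pin tool, on the day after seeding. Nuclei were counted after 5 days, and relative viability is the treated-to-vehicle ratio of nuclei counts. Values are medians of duplicate plates.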

NCI-H1755 = tested on: NCI-H1755
In short: as §1

NCI-H1793 = tested on: NCI-H1793
In short: as §1

HCC-366 = tested on: HCC-366
In short: as §1

NCI-H2228 = tested on: NCI-H2228
In short: as §1

NCI-H1651 = tested on: NCI-H1651
In short: as §1

LC-2-ad = tested on: LC-2-ad
In short: as §1

NCI-H2087 = tested on: NCI-H2087
In short: as §1

HCC-78 = tested on: HCC-78
In short: as §1

LOU-NH91 = tested on: LOU-NH91
In short: as §1

NCI-H2405 = tested on: NCI-H2405
In short: as §1

UMC-11 = tested on: UMC-11
In short: as §1

NCI-H1395 = tested on: NCI-H1395
In short: as §1

ChaGo-K-1 = tested on: ChaGo-K-1
In short: as §1

NCI-H3122 = tested on: NCI-H3122
In short: as §1

ABC-1 = tested on: ABC-1
In short: as §1

NCI-H1944 = tested on: NCI-H1944
In short: as §1

NCI-H2170 = tested on: NCI-H2170
In short: as §1

RERF-LC-KJ = tested on: RERF-LC-KJ
In short: as §1

PC-3 [JPC-3] = tested on: PC-3 [JPC-3]
In short: as §1

CAL-12T = tested on: CAL-12T
In short: as §1

LU99A = tested on: LU99A
In short: as §1

## CCN(CC)CCCCNc1ncc2cc(-c3cc(OC)cc(OC)c3)c(NC(=O)NC(C)(C)C)nc2n1 + O=C(CCCCCCC(=O)Nc1ccccc1)NO [Vorinostat] (partner 1 µM)
NCI-H460; first compound 0.01 µM
  relative viability: 0.817
NCI-H460; first compound 0.03162 µM
  relative viability: 0.793
NCI-H460; first compound 0.1 µM
  relative viability: 1.39
NCI-H460; first compound 0.3162 µM
  relative viability: 0.763
NCI-H460; first compound 1 µM
  relative viability: 0.557
NCI-H1755; first compound 0.01 µM
  relative viability: 0.71
NCI-H1755; first compound 0.03162 µM
  relative viability: 0.919
NCI-H1755; first compound 0.1 µM
  relative viability: 0.848
NCI-H1755; first compound 0.3162 µM
  relative viability: 0.965
NCI-H1755; first compound 1 µM
  relative viability: 0.746
NCI-H1793; first compound 0.01 µM
  relative viability: 0.724
NCI-H1793; first compound 0.03162 µM
  relative viability: 0.707
NCI-H1793; first compound 0.1 µM
  relative viability: 0.898
NCI-H1793; first compound 0.3162 µM
  relative viability: 0.816
NCI-H1793; first compound 1 µM
  relative viability: 0.599
HCC-366; first compound 0.01 µM
  relative viability: 0.414
HCC-366; first compound 0.03162 µM
  relative viability: 0.369
HCC-366; first compound 0.1 µM
  relative viability: 0.423
HCC-366; first compound 0.3162 µM
  relative viability: 0.383
HCC-366; first compound 1 µM
  relative viability: 0.288
NCI-H2228; first compound 0.01 µM
  relative viability: 0.643
NCI-H2228; first compound 0.03162 µM
  relative viability: 0.515
NCI-H2228; first compound 0.1 µM
  relative viability: 0.807
NCI-H2228; first compound 0.3162 µM
  relative viability: 0.794
NCI-H2228; first compound 1 µM
  relative viability: 0.595
NCI-H1651; first compound 0.01 µM
  relative viability: 0.541
NCI-H1651; first compound 0.03162 µM
  relative viability: 0.626
NCI-H1651; first compound 0.1 µM
  relative viability: 0.582
NCI-H1651; first compound 0.3162 µM
  relative viability: 0.674
NCI-H1651; first compound 1 µM
  relative viability: 0.475
LC-2-ad; first compound 0.01 µM
  relative viability: 0.716
LC-2-ad; first compound 0.03162 µM
  relative viability: 0.798
LC-2-ad; first compound 0.1 µM
  relative viability: 0.76
LC-2-ad; first compound 0.3162 µM
  relative viability: 0.739
LC-2-ad; first compound 1 µM
  relative viability: 0.66
NCI-H2087; first compound 0.01 µM
  relative viability: 0.669
NCI-H2087; first compound 0.03162 µM
  relative viability: 0.71
NCI-H2087; first compound 0.1 µM
  relative viability: 0.893
NCI-H2087; first compound 0.3162 µM
  relative viability: 0.886
NCI-H2087; first compound 1 µM
  relative viability: 0.514
HCC-78; first compound 0.01 µM
  relative viability: 0.479
HCC-78; first compound 0.03162 µM
  relative viability: 0.487
HCC-78; first compound 0.1 µM
  relative viability: 0.478
HCC-78; first compound 0.3162 µM
  relative viability: 0.456
HCC-78; first compound 1 µM
  relative viability: 0.497
LOU-NH91; first compound 0.01 µM
  relative viability: 0.868
LOU-NH91; first compound 0.03162 µM
  relative viability: 0.99
LOU-NH91; first compound 0.1 µM
  relative viability: 1.04
LOU-NH91; first compound 0.3162 µM
  relative viability: 1.08
LOU-NH91; first compound 1 µM
  relative viability: 0.901
NCI-H2405; first compound 0.01 µM
  relative viability: 0.795
NCI-H2405; first compound 0.03162 µM
  relative viability: 1.03
NCI-H2405; first compound 0.1 µM
  relative viability: 1.08
NCI-H2405; first compound 0.3162 µM
  relative viability: 1.22
NCI-H2405; first compound 1 µM
  relative viability: 0.94
UMC-11; first compound 0.01 µM
  relative viability: 0.4
UMC-11; first compound 0.03162 µM
  relative viability: 0.36
UMC-11; first compound 0.1 µM
  relative viability: 0.361
UMC-11; first compound 0.3162 µM
  relative viability: 0.394
UMC-11; first compound 1 µM
  relative viability: 0.311
NCI-H1395; first compound 0.01 µM
  relative viability: 0.648
NCI-H1395; first compound 0.03162 µM
  relative viability: 0.786
NCI-H1395; first compound 0.1 µM
  relative viability: 0.714
NCI-H1395; first compound 0.3162 µM
  relative viability: 0.742
NCI-H1395; first compound 1 µM
  relative viability: 0.513
ChaGo-K-1; first compound 0.01 µM
  relative viability: 0.776
ChaGo-K-1; first compound 0.03162 µM
  relative viability: 0.822
ChaGo-K-1; first compound 0.1 µM
  relative viability: 0.824
ChaGo-K-1; first compound 0.3162 µM
  relative viability: 0.827
ChaGo-K-1; first compound 1 µM
  relative viability: 0.693
NCI-H3122; first compound 0.01 µM
  relative viability: 0.983
NCI-H3122; first compound 0.03162 µM
  relative viability: 1.06
NCI-H3122; first compound 0.1 µM
  relative viability: 1.09
NCI-H3122; first compound 0.3162 µM
  relative viability: 0.996
NCI-H3122; first compound 1 µM
  relative viability: 1.14
ABC-1; first compound 0.03162 µM
  relative viability: 0.99
ABC-1; first compound 0.1 µM
  relative viability: 1.35
ABC-1; first compound 0.3162 µM
  relative viability: 1.01
ABC-1; first compound 1 µM
  relative viability: 1.09
NCI-H1944; first compound 0.01 µM
  relative viability: 0.536
NCI-H1944; first compound 0.03162 µM
  relative viability: 0.676
NCI-H1944; first compound 0.1 µM
  relative viability: 0.596
NCI-H1944; first compound 0.3162 µM
  relative viability: 0.576
NCI-H1944; first compound 1 µM
  relative viability: 0.521
NCI-H2170; first compound 0.01 µM
  relative viability: 0.782
NCI-H2170; first compound 0.03162 µM
  relative viability: 0.92
NCI-H2170; first compound 0.1 µM
  relative viability: 0.983
NCI-H2170; first compound 0.3162 µM
  relative viability: 0.969
NCI-H2170; first compound 1 µM
  relative viability: 0.776
RERF-LC-KJ; first compound 0.01 µM
  relative viability: 0.748
RERF-LC-KJ; first compound 0.03162 µM
  relative viability: 0.71
RERF-LC-KJ; first compound 0.1 µM
  relative viability: 0.764
RERF-LC-KJ; first compound 0.3162 µM
  relative viability: 0.794
RERF-LC-KJ; first compound 1 µM
  relative viability: 0.661
PC-3 [JPC-3]; first compound 0.03162 µM
  relative viability: 0.659
PC-3 [JPC-3]; first compound 0.1 µM
  relative viability: 0.937
PC-3 [JPC-3]; first compound 0.3162 µM
  relative viability: 1.18
PC-3 [JPC-3]; first compound 1 µM
  relative viability: 0.698
CAL-12T; first compound 0.01 µM
  relative viability: 0.784
CAL-12T; first compound 0.03162 µM
  relative viability: 0.702
CAL-12T; first compound 0.1 µM
  relative viability: 0.766
CAL-12T; first compound 0.3162 µM
  relative viability: 0.778
CAL-12T; first compound 1 µM
  relative viability: 0.845
LU99A; first compound 0.01 µM
  relative viability: 0.528
LU99A; first compound 0.03162 µM
  relative viability: 0.601
LU99A; first compound 0.1 µM
  relative viability: 0.541
LU99A; first compound 0.3162 µM
  relative viability: 0.529
LU99A; first compound 1 µM
  relative viability: 0.423
